Results reported in patent US11850325B2, “Injectable, bioadhesive cryogel scaffolds for biomedical uses” (Northeastern University, priority 2019, dated 2023).

Settings: mouse
Description: All animal experiments were reviewed and approved by Institutional Animal Care and Use Committee (ICAUC; protocol 15-1248R) at Northeastern University (Boston, MA, USA). […] Anesthesia was achieved by isoflurane (2.5%) inhalation, followed by SC buprenorphine (0.02-0.05 mg/kg) administration. After inducing anesthesia, cryogels (4% total polymer concentration (w/v), 4×4×1 mm) were implanted via injection using a sterile 18-gauge needle.
The cryogels sterilized in 70% ethanol (v/v) for 20 minutes and under UV light. Cryogels were loaded into sterile syringes and sterile 18G needles. […] After 21 days post-implantation, animals were euthanized and the cryogels were retrieved along with the surrounding tissues for histological assessment, and placed in cold DPBS. Hydrogels used for biodegradation studies were thoroughly washed in distilled water, and excess tissue was carefully removed under a dissection microscope.
After explantation, samples were fixed in paraformaldehyde (4% v/v)) for 4 h, followed by overnight incubation in 30% sucrose (30% w/v) at 4° C. Samples were then embedded in OCT and flash frozen in liquid nitrogen. Frozen samples were sectioned using a Leica Biosystems CM3050 S Research Cryostat. 14-μm cryosections were obtained and mounted in positively charged slides using DPX mountant medium (Sigma). Slides were then processed for hematoxylin and eosin staining (Sigma) according to instructions from the manufacturer. Immunohistofluorescent staining was performed on mounted cryosections as previously reported.^15 Anti-CD3 [SP7] (ab16669), anti-CD206 (ab125212), anti-F480 were used as primary antibodies, and an Alexa Fluor 594-conjugated secondary antibody (Invitrogen) was used for detection. All sections were counterstained with DAPI (Invitrogen), and visualized on an AxioObserver Z1 inverted microscope.
In vivo injectability, bioadhesion, and immunohistology. Lastly, we characterized the in vivo biodegradation of HAGM and HPD cryogels, including their interactions with native tissues via subcutaneous implantation in a murine animal model. Sterile composite cryogels (HAGM and HPD, 4×4×1 mm) were suspended in 0.2 mL of PBS and were injected subcutaneously in the backs of C57BL/6J mice. After 21 days post-implantation, the mice were euthanized prior to cryogel retrieval, along with adjacent tissue. […] Explanted samples were then flash-frozen at an optimal cutting temperature (OCT) compound, cryosectioned into 14-μm slices, and mounted onto glass slides for histological examination.

hyaluronic acid methacrylate [HAGM]
H&E staining, cell migration into explanted cryogels (in vivo): migration of predominantly non-inflammatory cells
lymphocyte/leukocyte infiltration (CD3) (in vivo): no significant local lymphocyte infiltration
macrophage infiltration (CD206 and F480) (in vivo): some macrophages
tissue integration and immunocytotoxicity (in vivo, sc): high tissue integration with no immunocytoxicity
in vivo biodegradation (visual inspection) (sc): no biodegradation
